Tests used:
[1] = biological target: EGFR (Epidermal Growth Factor Receptor 1) (Homo sapiens, UniProt P00533); experiment: ELISA protein tyrosine kinase inhibition, EGFR; type: biochemical; settings: ELISA, Poly(Glu, Tyr) 4:1 substrate, ATP 5 μM, test samples at 10-5 mol/l; read-out: EGFR inhibitory activity (IC50 class)
From the text: (§1) Determining the Effect of Test Samples at a Concentration of 10-5 Mol/l on the Activity of the Substrate Phosphoryation Catalyzed by EGFR (Epidermal Growth Factor Receptor 1), ErbB-2 (Epidermal Growth Factor Receptor 2), ErbB-4, KDR (Vascular Endothelial Growth Factor Receptor 2) Protein Tyrosine Kinases at Molecular Level
(§2) Enzyme-Linked Immunosorbent Assay (ELISA)
(§3) Main instrument: wavelength-tunable microplate reader (VERSAmax).
(§4) Main reagents: kinase reaction substrate Poly(Glu, Tyr) 4:1 from Sigma; anti-phosphotyrosine monoclonal antibody PY99 from Santa Cruz; horseradish peroxidase-labeled goat anti-mouse IgG from Calbiochem; ATP, DTT, OPD from Amresco, and ELISA plate from Corning.
(§5) Poly(Glu, Tyr)4:1 as an enzyme substrate was diluted by potassium ion-free PBS into 20 μg/ml, and an ELISA plate was coated and subjected to reaction for 12-16 h at 37° C. After the liquid in wells was removed, the plate was washed three time by T-PBS, 5 min for each time. The ELISA plate was then dried in an oven at 37° C. The coated wells were added with the test samples: the test samples were prepared for a stock solution with a concentration of 1×10^−2M in DMSO. The aliquot solution was stored at −20° C., and diluted to the desired concentration with reaction buffer before use. The resulting solution was added into the wells so that the final concentration of 10-5 mol/l in 100 μL reaction system can be obtained. At the same time, a positive control well was set up and a positive control compound Su11248 was added. ATP and test tyrosine kinases were added: ATP solution diluted with reaction buffer was added (the final concentration of ATP is 5 μM). Finally, the test tyrosine kinases solution diluted with reaction buffer was added. The total volume of the reaction system was […]. Meanwhile, a negative control well and a control well without enzyme were set up. The reaction system was placed in a wet box, and shaked for 1 hour at 37° C., shielding from light. After the reaction was complete, the plate was washed by T-PBS three times. Antibody PY99 was added at 100 μL/well; and the plate was shaked for 30 min at 37° C. After the reaction was complete, the plate was washed with T-PBS three times. Horseradish peroxidase-labeled goat anti-mouse IgG was added at 100 μL/well, and the plate was shaked for 30 min at 37° C. The plate was washed with T-PBS three times. OPD developing liquid was added at 100 μL/well, and reacted for 1-10 min at room temperature, shielding from light. 50 μL of 2 M H2SO4 was added to stop the reaction. A492 value was determined using wavelength-tunable microplate reader. The inhibition ratio of the samples can be calculated by the following equation: […]

[2] = biological target: ErbB-2 (Epidermal Growth Factor Receptor 2) (Homo sapiens, UniProt P04626); experiment: ELISA protein tyrosine kinase inhibition, ErbB-2; type: biochemical; settings: Poly(Glu, Tyr) 4:1 substrate, ATP 5 μM, test samples at 10-5 mol/l, read-out: ErbB2 inhibitory activity (IC50 class)
From the text: as §1, §2, §3, §4, §5

Sequence of EGFR (Epidermal Growth Factor Receptor 1) (P00533 25-1210): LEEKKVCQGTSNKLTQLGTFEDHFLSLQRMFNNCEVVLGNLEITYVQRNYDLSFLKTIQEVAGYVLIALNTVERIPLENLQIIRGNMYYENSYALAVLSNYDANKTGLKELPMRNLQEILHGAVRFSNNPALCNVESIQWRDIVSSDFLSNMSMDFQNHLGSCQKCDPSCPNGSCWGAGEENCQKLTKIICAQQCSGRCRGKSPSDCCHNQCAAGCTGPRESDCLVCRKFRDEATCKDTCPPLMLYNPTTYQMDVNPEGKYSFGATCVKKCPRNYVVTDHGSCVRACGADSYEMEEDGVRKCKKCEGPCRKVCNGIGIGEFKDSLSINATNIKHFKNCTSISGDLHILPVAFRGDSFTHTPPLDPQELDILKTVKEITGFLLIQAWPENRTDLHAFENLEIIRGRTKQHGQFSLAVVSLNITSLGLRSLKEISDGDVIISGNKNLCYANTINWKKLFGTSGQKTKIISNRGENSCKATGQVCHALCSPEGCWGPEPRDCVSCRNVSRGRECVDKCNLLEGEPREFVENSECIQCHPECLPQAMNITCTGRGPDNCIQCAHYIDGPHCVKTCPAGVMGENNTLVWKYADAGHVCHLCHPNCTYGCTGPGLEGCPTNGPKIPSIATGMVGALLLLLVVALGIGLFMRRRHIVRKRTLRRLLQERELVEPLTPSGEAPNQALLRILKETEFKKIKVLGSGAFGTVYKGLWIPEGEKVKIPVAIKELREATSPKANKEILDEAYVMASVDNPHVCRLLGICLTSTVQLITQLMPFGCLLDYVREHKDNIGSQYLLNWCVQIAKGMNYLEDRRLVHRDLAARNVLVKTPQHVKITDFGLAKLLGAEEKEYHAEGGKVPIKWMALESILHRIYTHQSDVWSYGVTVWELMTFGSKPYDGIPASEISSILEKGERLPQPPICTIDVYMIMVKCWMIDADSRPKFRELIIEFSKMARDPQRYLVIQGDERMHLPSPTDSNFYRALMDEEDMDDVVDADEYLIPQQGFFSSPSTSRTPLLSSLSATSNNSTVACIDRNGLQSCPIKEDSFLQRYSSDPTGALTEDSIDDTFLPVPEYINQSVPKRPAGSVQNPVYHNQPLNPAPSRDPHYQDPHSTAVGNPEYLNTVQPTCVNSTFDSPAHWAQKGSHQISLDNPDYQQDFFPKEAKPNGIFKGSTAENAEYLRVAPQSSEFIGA
Sequence of ErbB-2 (Epidermal Growth Factor Receptor 2) (P04626 23-1255): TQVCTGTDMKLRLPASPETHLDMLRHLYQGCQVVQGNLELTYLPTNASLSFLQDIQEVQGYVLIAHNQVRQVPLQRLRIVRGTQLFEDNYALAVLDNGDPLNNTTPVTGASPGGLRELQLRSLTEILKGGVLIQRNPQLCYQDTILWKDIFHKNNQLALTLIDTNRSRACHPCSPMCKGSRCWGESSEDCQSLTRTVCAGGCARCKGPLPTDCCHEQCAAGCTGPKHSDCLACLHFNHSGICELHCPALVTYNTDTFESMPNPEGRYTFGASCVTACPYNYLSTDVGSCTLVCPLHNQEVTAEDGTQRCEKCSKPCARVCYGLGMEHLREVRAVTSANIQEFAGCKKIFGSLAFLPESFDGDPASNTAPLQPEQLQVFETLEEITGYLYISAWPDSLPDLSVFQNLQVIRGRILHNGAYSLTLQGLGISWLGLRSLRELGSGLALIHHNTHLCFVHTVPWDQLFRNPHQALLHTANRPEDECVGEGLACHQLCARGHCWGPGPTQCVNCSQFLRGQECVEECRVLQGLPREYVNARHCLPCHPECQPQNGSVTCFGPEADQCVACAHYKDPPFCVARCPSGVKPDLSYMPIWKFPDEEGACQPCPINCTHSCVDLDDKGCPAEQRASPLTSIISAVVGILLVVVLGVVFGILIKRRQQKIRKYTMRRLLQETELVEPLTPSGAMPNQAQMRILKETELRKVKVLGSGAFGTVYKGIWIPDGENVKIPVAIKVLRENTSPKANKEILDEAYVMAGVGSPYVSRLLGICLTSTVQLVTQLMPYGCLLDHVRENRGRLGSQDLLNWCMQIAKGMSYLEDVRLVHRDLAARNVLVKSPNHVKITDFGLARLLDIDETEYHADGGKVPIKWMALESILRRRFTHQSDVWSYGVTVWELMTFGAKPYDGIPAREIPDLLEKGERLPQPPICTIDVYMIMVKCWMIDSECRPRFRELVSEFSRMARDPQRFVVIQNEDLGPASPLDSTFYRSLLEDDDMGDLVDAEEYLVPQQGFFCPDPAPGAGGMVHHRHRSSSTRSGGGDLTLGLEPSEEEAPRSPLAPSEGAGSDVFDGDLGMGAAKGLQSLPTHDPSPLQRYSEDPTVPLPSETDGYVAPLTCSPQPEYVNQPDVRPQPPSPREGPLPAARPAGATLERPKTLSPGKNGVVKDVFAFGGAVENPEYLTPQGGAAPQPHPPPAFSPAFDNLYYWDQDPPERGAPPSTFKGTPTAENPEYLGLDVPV

| IC50 [1] | IC50 [2] | SMILES |
| --- | --- | --- |
| < 10 µM | < 10 µM | COCCCCNCc1ccc(-c2ccc3ncnc(Nc4ccc(OCc5cccc(F)c5)c(Cl)c4)c3c2)o1 [MS10·dimethanesulfonate, N-(3-chloro-4-((3-fluorobenzyl)oxy)phenyl)-6-(5-(((4-methoxybutyl)amino)methyl)-2-furyl)-4-quinazolinamine] |
| < 10 µM | > 10 µM | CCCCCCNCc1ccc(-c2ccc3ncnc(Nc4ccc(OCc5cccc(F)c5)c(Cl)c4)c3c2)o1 [MS 2, N-(3-chloro-4-((3-fluorobenzyl)oxy)phenyl)-6-(5-((n-hexylamino)methyl)-2-furyl)-4-quinazolinamine] |
| < 10 µM | < 10 µM | CCNCc1ccc(-c2ccc3ncnc(Nc4ccc(OCc5cccc(F)c5)c(Cl)c4)c3c2)o1 [MS 3, N-(3-chloro-4-((3-fluorobenzyl)oxy)phenyl)-6-(5-((ethylamino)methyl)-2-furyl)-4-quinazolinamine] |
| < 10 µM | < 10 µM | CCN(CC)Cc1ccc(-c2ccc3ncnc(Nc4ccc(OCc5cccc(F)c5)c(Cl)c4)c3c2)o1 [MS 4] |
| < 10 µM | > 10 µM | Fc1cccc(COc2ccc(Nc3ncnc4ccc(-c5ccc(CNCc6cccc(Cl)c6)o5)cc34)cc2Cl)c1 [MS 11, N-(3-chloro-4-((3-fluorobenzyl)oxy)phenyl)-6-(5-(((3-chlorobenzyl)amino)methyl)-2-furyl)-4-quinazolinamine] |
| < 10 µM | < 10 µM | O=[N+]([O-])c1ccc(CCNCc2ccc(-c3ccc4ncnc(Nc5ccc(OCc6cccc(F)c6)c(Cl)c5)c4c3)o2)cc1 [MS 12, N-(3-chloro-4-((3-fluorobenzyl)oxy)phenyl)-6-(5-(((2-(4-nitrophenyl)ethyl)amino)methyl)-2-furyl)-4-quinazolinamine] |
| < 10 µM | < 10 µM | Oc1ccc(CCNCc2ccc(-c3ccc4ncnc(Nc5ccc(OCc6cccc(F)c6)c(Cl)c5)c4c3)o2)cc1 [MS 13, N-(3-chloro-4-((3-fluorobenzyl)oxy)phenyl)-6-(5-(((2-(4-hydroxyphenyl)ethyl)amino)methyl)-2-furyl)-4-quinazolinamine] |
| < 10 µM | < 10 µM | COc1cc(CCNCc2ccc(-c3ccc4ncnc(Nc5ccc(OCc6cccc(F)c6)c(Cl)c5)c4c3)o2)cc(OC)c1 [MS 14] |
| < 10 µM | < 10 µM | Oc1cc(F)cc(CCNCc2ccc(-c3ccc4ncnc(Nc5ccc(OCc6cccc(F)c6)c(Cl)c5)c4c3)o2)c1 [MS 15, N-(3-chloro-4-((3-fluorobenzyl)oxy)phenyl)-6-(5-(((2-(3-hydroxy-5-fluorophenyl)ethyl)amino)methyl)-2-furyl)-4-quinazolinamine] |
| < 10 µM | > 10 µM | Fc1cc(Cl)cc(CCNCc2ccc(-c3ccc4ncnc(Nc5ccc(OCc6cccc(F)c6)c(Cl)c5)c4c3)o2)c1 [MS 16, N-(3-chloro-4-((3-fluorobenzyl)oxy)phenyl)-6-(5-(((2-(3-chloro-5-fluorophenyl)ethyl)amino)methyl)-2-furyl)-4-quinazolinamine] |
| < 10 µM | < 10 µM | OCCCCC(O)CNCc1ccc(-c2ccc3ncnc(Nc4ccc(OCc5cccc(F)c5)c(Cl)c4)c3c2)o1 (centres unmarked) [MS 17, N-(3-chloro-4-((3-fluorobenzyl)oxy)phenyl)-6-(5-(((2,6-dihydroxyhexyl)amino)methyl)-2-furyl)-4-quinazolinamine] |
| < 10 µM | < 10 µM | Fc1cccc(COc2ccc(Nc3ncnc4ccc(-c5ccc(CNOCc6ccccc6)o5)cc34)cc2Cl)c1 [MS 19, N-(3-chloro-4-((3-fluorobenzyl)oxy)phenyl)-6-(5-(((benzyloxy)amino)methyl)-2-furyl)-4-quinazolinamine] |
| < 10 µM | < 10 µM | NC1CCCC(NCc2ccc(-c3ccc4ncnc(Nc5ccc(OCc6cccc(F)c6)c(Cl)c5)c4c3)o2)C1 (centres unmarked) [MS 21, N-(3-chloro-4-((3-fluorobenzyl)oxy)phenyl)-6-(5-(((3-aminocyclohexyl)amino)methyl)-2-furyl)-4-quinazolinamine] |
| < 10 µM | < 10 µM | O=C(O)CNCc1ccc(-c2ccc3ncnc(Nc4ccc(OCc5cccc(F)c5)c(Cl)c4)c3c2)o1 [MS 22, N-(3-chloro-4-((3-fluorobenzyl)oxy)phenyl)-6-(5-(((carboxymethyl)amino)methyl)-2-furyl)-4-quinazolinamine] |
| < 10 µM | < 10 µM | O=C(O)C(Cc1ccccc1)NCc1ccc(-c2ccc3ncnc(Nc4ccc(OCc5cccc(F)c5)c(Cl)c4)c3c2)o1 (centres unmarked) [MS 24, N-(3-chloro-4-((3-fluorobenzyl)oxy)phenyl)-6-(5-((((1-carboxy-2-phenyl)ethyl)amino)methyl)-2-furyl)-4-quinazolinamine] |
| < 10 µM | < 10 µM | O=C(O)C(CO)NCc1ccc(-c2ccc3ncnc(Nc4ccc(OCc5cccc(F)c5)c(Cl)c4)c3c2)o1 (centres unmarked) [MS 28, N-(3-chloro-4-((3-fluorobenzyl)oxy)phenyl)-6-(5-((((1-carboxy-2-hydroxy)ethyl)amino)methyl)-2-furyl)-4-quinazolinamine] |
| < 10 µM | < 10 µM | O=C(O)C(CS)NCc1ccc(-c2ccc3ncnc(Nc4ccc(OCc5cccc(F)c5)c(Cl)c4)c3c2)o1 (centres unmarked) [MS 29] |
| < 10 µM | < 10 µM | NC(=O)CC(NCc1ccc(-c2ccc3ncnc(Nc4ccc(OCc5cccc(F)c5)c(Cl)c4)c3c2)o1)C(=O)O (centres unmarked) [MS 30, N-(3-chloro-4-((3-fluorobenzyl)oxy)phenyl)-6-(5-((((1-carboxy-2-aminoformyl)ethyl)amino)methyl)-2-furyl)-4-quinazolinamine] |
| < 10 µM | < 10 µM | NC(CCCNCc1ccc(-c2ccc3ncnc(Nc4ccc(OCc5cccc(F)c5)c(Cl)c4)c3c2)o1)C(=O)O (centres unmarked) [MS 32, N-(3-chloro-4-((3-fluorobenzyl)oxy)phenyl)-6-(5-((((4-carboxy-4-amino)butyl)amino)methyl)-2-furyl)-4-quinazolinamine] |
| – | < 10 µM | NC(CCCNCc1ccc(-c2ccc3ncnc(Nc4ccc(F)c(Cl)c4)c3c2)o1)C(=O)O (centres unmarked) [MS 37, N-(3-chloro-4-fluorophenyl)-6-(5-((((4-carboxy-4-amino)butyl)amino)methyl)-2-furyl)-4-quinazolinamine] |
| – | < 10 µM | NCCCC(NCc1ccc(-c2ccc3ncnc(Nc4ccc(F)c(Cl)c4)c3c2)o1)C(=O)O (centres unmarked) [MS 38, N-(3-chloro-4-fluorophenyl)-6-(5-((((1-carboxy-4-amino)butyl)amino)methyl)-2-furyl)-4-quinazolinamine] |
| – | < 10 µM | O=[N+]([O-])c1ccc(CCNCc2ccc(-c3ccc4ncnc(Nc5ccc(F)c(Cl)c5)c4c3)o2)cc1 [MS 40, N-(3-chloro-4-fluorophenyl)-6-(5-(((2-(4-nitrophenyl)ethyl)amino)methyl)-2-furyl)-4-quinazolinamine] |
